# Values of other authors in patent US6749871B2, “Compositions for treating symptoms of urogenital/urological disorders” (Prater Herbs, L.L.C., priority 2002, dated 2004).
# Test system: benign prostatic hyperplasia
# Conditions: three-year clinical evaluation
smiles,measurement,value
CC(C)(C)NC(=O)[C@H]1CC[C@H]2[C@@H]3CC[C@H]4NC(=O)C=C[C@]4(C)[C@H]3CC[C@]12C [Finasteride],Improvement in urinary flow rate,2.3 ml per second
same,Participants with side effects such as decreased libido and impotence,about four to five percent
same,Reduction in prostatic volume,about 27%
same,Reduction in symptom score,3.6 points
